One test deals with T1, Recombinant p62 protein (Homo sapiens, UniProt Q13501).
T1 construct: Recombinant p62 protein was buffer exchanged into Biacore SPR running buffer
T1 sequence (Q13501 whole entry, species assumed): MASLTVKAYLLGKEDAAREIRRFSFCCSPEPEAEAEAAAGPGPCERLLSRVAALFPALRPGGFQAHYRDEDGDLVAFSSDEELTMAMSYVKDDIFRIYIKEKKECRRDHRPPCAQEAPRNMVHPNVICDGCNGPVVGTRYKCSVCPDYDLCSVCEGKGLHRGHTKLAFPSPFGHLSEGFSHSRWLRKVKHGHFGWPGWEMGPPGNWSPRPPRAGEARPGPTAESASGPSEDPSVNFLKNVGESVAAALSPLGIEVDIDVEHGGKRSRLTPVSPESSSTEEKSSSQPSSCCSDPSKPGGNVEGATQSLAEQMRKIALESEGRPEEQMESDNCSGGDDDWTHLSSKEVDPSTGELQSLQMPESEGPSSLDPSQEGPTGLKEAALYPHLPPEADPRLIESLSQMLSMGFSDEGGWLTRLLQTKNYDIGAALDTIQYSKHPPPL
The test can be described thus: Surface plasmon resonance (SPR) compound binding to immobilised p62. Conditions: recombinant p62, 15° C. As to the method:
Example 28: Surface Plasmon Resonance (SPR) Analysis
Recombinant p62 protein was buffer exchanged into Biacore SPR running buffer (Cytiva 100671) using the Slide-A-Lyzer Mini Dialysis system 7K MWCO (Thermo Fisher Scientific, Cat no. 69560). The final protein concentration was determined using the Nanodrop One spectrophotometer (Thermo Fisher Scientific, cat no. ND-ONE-W), with calibration for the dialysis buffer.
The prepared protein was diluted in sodium acetate buffer (NaAc, pH 5.5, Cytiva) to concentrations ranging from approximately 0.25-40 μg/mL. Post-immobilization, the protein required approximately 16 hours of equilibration in running buffer supplemented with 1% DMSO at 15° C. to ensure adequate surface equilibration and protein reorganization.
All SPR experiments were conducted at a constant temperature of 15° C. The SPR chip surface was activated using EDC/NHS for a contact time of 6-10 min at a flow rate of 10 μL/min. This was followed by protein immobilization for 2100 seconds and ethanolamine capping for 420 seconds, both at the same flow rate. Immediately after immobilization, the NH2—REEE peptide was analyzed in Single Cycle Kinetics mode (SCK) to verify surface activity, ensuring it binds the sample with the published affinity (−20 μM by SPR).
For general compound binding studies, experiments were performed at 15° C. using a running buffer composed of 10 mM HEPES, 150 mM NaCl, 1 mM DTT, 0.05% Tween 20, and 1% DMSO at pH 7.4. The test compound was initially prepared at a 20 mM concentration in DMSO and subsequently titrated in 2-fold dilutions. For each assay, 2 μL of the compound was mixed with 198 μL of the running buffer, and the mixture was thoroughly pipetted approximately 15 times for homogenization.
A series of blank injections (0 μM concentration) were included for double referencing, with at least 8 or 16 per plate depending on the format. Typical injection parameters were 120 seconds for association and 180 seconds for dissociation at a flow rate of […]. A four-point solvent correction was prepared with DMSO concentrations ranging from 2% to 0.5% in the buffer. Post each compound injection, the system's needles were washed with 50% DMSO.
Analysis of the SPR data was conducted using the Cytiva Evaluation software. The binding levels at the late time-point of each interaction were corrected for reference, then normalized to percentage bound values to account for variations in immobilization levels, protein molecular weight, and compound molecular weight.
Compound binding studies were carried out according to experimental procedures above and SPR % occupancy was determined and summarized in Table 7.
On the technique in general: In SPR one partner is held on a chip, and binding of the other changes the refractive index at the surface.
On to `OCCNCc1ccc2cc(Cc3ccncc3)oc2c1` [Compound 16, 2-(((2-(pyridin-4-ylmethyl)benzofuran-6-yl)methyl)amino)ethan-1-ol], for which the receptor occupancy at 100 µM was in the range of 30 to 70%.

Take `O=C(NCCO)c1ccc2cc(Cc3ccccc3)oc2c1` [Compound 6, 2-benzyl-N-(2-hydroxyethyl)benzofuran-6-carboxamide]: the receptor occupancy at 100 µM was below 30%.

As to `OCCNCc1ccc2cc(Cc3ccccc3)oc2c1F` [Compound 38, 2-(((2-benzyl-7-fluorobenzofuran-6-yl)methyl)amino)ethan-1-ol], the receptor occupancy at 100 µM was 30 to 70%.

On to `O=S(=O)(c1ccccc1)c1cc2ccc(CNCCO)cc2o1` [Compound 18, 2-(((2-(phenylsulfonyl)benzofuran-6-yl)methyl)amino)ethan-1-ol], for which the receptor occupancy at 100 µM lay within 30 to 70%.

Turning to `OCCNCc1ccc2nc(Cc3ccccc3)sc2c1` [compound 48, 2-(((2-benzylbenzo[d]thiazol-6-yl)methyl)amino)ethan-1-ol], the receptor occupancy at 100 µM fell in the range of 30 to 70%.

With `OCCNCc1ccc2cc(CNC3CCOCC3)oc2c1` [compound 32], the receptor occupancy at 100 µM is below 30%.

With `O=S(=O)(Nc1ccccc1)c1cc2ccc(CNCCO)cc2o1` [Compound 19, 6-(((2-hydroxyethyl)amino)methyl)-N-phenylbenzofuran-2-sulfonamide], the receptor occupancy at 100 µM was 30 to 70%.

On to `OCCNCc1ccc2nc(Cc3ccccc3)oc2c1` [compound 47, 2-(((2-benzylbenzo[d]oxazol-6-yl)methyl)amino)ethan-1-ol], for which the receptor occupancy at 100 µM is below 30%.

Take `CN(C)C(=O)Cc1cc2ccc(CNCCO)cc2o1` [Compound 29, 2-(6-(((2-hydroxyethyl)amino)methyl)benzofuran-2-yl)-N,N-dimethylacetamide]: the receptor occupancy at 100 µM is below 30%.

Turning to `OCCNCc1cccc2oc(Cc3ccccc3)cc12` [compound 4], the receptor occupancy at 100 µM lay within 30 to 70%.

Take `O=C(NCCO)c1ccc2cc(CCc3ccc(F)cc3)oc2c1` [compound 50, 2-(4-fluorophenethyl)-N-(2-hydroxyethyl)benzofuran-6-carboxamide]: the receptor occupancy at 100 µM is below 30%.

Consider `OCCNCc1ccc2cc(CN3CCCC(O)C3)oc2c1` (stereo not drawn) [compound 28], for which the receptor occupancy at 100 µM was below 30%.

As to `OCCNCc1ccc2oc(Cc3ccccc3)cc2c1` [compound 45], the receptor occupancy at 100 µM fell in the range of 30 to 70%.

Take `O=C(c1cc2ccc(CNCCO)cc2o1)N1CCCCC1` [Compound 34, (6-(((2-hydroxyethyl)amino)methyl)benzofuran-2-yl)(piperidin-1-yl)methanone]: the receptor occupancy at 100 µM is below 30%.

Consider `O=C(CCO)Nc1ccc2cc(Cc3ccccc3)oc2c1` [Compound 11, N-(2-benzylbenzofuran-6-yl)-3-hydroxypropanamide], for which the receptor occupancy at 100 µM was below 30%.

As for `OCCNCc1ccc2cc(Cc3c[nH]cn3)oc2c1` [compound 23], the receptor occupancy at 100 µM was below 30%.

Regarding `OCCNCc1cc2oc(Cc3ccccc3)cc2cc1F` [Compound 36, 2-(((2-benzyl-5-fluorobenzofuran-6-yl)methyl)amino)ethan-1-ol], the receptor occupancy at 100 µM is 30 to 70%.

Another test has as its system p62 puncta in HeLa cells. The test can be described thus: p62 puncta assay (immunocytochemistry and imaging, EVOS M7000 or Operetta CLS). Type of test: cell-based. Conditions: Homo sapiens, fold change in p62 puncta levels relative to DMSO control, 24 hr. The protocol: HeLa cells were seeded in coated 96-well plates (10,000 cells) and allowed to adhere overnight. After 24 hours of treatment with either vehicle (DMSO) or test compounds, the media was discarded, and cells were rinsed with ice-cold 1×PBS before fixation by 4% formaldehyde or paraformaldehyde for 20 min. Cells were then washed with 1×PBS and permeabilized with 0.1% Triton X-100 in PBS for 20 min and blocked with Blocking Buffer in PBS for 1 hour. The cells were incubated thereafter for 1 hour with anti-p62 primary antibody in Blocking Buffer, followed by incubation with secondary antibody for 1 hour. DAPI dye was used to visualize nuclei of fixed cells. The blocking buffer used were 5% Fetal Bovine Serum (FBS, ThermoFIsher Scientific, 10270106) and Li-cor Intercept (PBS) Blocking Buffer (Li-cor, 927-70001). The primary antibody used was mouse anti-p62 primary antibody (Novus Biologicals, H00008878-MO1). The secondary antibodies used were goat anti-mouse Alexa Fluor Plus 488 secondary antibody (Invitrogen, GOXMS) and goat anti-mouse Alexa Fluor 488 secondary antibody (Invitrogen, A-11029). The DAPI dyes used were DAPI dye (Invitrogen, 62248) and DAPI dye (Invitrogen, D1306).
For the EVOS M7000 System, cells were imaged on the EVOS M7000 microscope using a 20× air objective (Nikon, N.A 0.45). DAPI and p62 channels were illuminated with LED light cubes using integrated hard-coated filter sets for DAPI (357/447 nm) and GFP (470/525 nm) respectively. Images were analysed for p62 puncta count on the Celeste 6.0 software.
For the Operetta CLS System, cells were imaged on the Operetta CLS using a 63× water objective on the DAPI and Alexa 488 channels. Images were analysed for p62 puncta count on the Harmony 5.1 software.
HeLa cells were treated with compounds for 24 hours to evaluate the effect of these compounds on p62 puncta activity. The resulting changes in levels of p62 puncta were assessed by imaging, either on the EVOS M7000 or Operetta CLS systems as described in experimental procedures. The fold change of p62 puncta levels induced by compound treatment relative to vehicle control (DMSO) was determined and summarized in Table 10.
Consider `OCCNCc1ccc2oc(Cc3ccccc3)cc2c1` [compound 45], for which the fold induction at 5 µM was below 2.

On to `CO[C@H]1CCCN(Cc2ccc3cc(-c4ccccc4)oc3c2)C1` [compound 110], for which the fold induction at 5 µM is below 2.

In turn, `COC(=O)CCOCCOCCNCc1ccc2cc(-c3ccccc3)oc2c1` [compound 95, methyl 3-(2-(2-(((2-phenylbenzofuran-6-yl)methyl)amino)ethoxy)ethoxy)propanoate] gave a fold induction at 5 µM above 2.

`CC(C)(C)OC(=O)N1CCC(OCCOCCNCc2ccc3cc(CCc4ccc(F)cc4)oc3c2)CC1` [compound 90]: the fold induction at 5 µM is above 2.

`OCCNCc1ccc2cc(-c3ccc(Cl)cc3)oc2c1` [compound 74] registered a fold induction at 5 µM above 2.

Take `CC(C)(C)OC(=O)Nc1cccc(COCCNCc2ccc3cc(CCc4ccc(F)cc4)oc3c2)c1` [compound 153]: the fold induction at 5 µM is above 2.

As for `CC(C)(C)OC(=O)CCOCCOCCNCc1ccc2cc(CCc3ccc(F)cc3)oc2c1` [compound 127], the fold induction at 5 µM was above 2.

Compound `CNCCCOCCOCCNCc1ccc2cc(-c3ccccc3)oc2c1` [compound 120] displayed a fold induction at 5 µM above 2.

Compound `CC(C)(C)OC(=O)N1CC(OCCNCc2ccc3cc(CCc4ccc(F)cc4)oc3c2)C1` [compound 158] had a fold induction at 5 µM above 2.

Turning to `CC(C)(C)OC(=O)N1CCC(COCCOCCNCc2ccc3cc(CCc4ccc(F)cc4)oc3c2)CC1` [compound 165], the fold induction at 5 µM was above 2.

`COC(=O)c1cccc(COCCNCc2ccc3cc(CCc4ccc(F)cc4)oc3c2)c1` [compound 135] displayed a fold induction at 5 µM below 2.

Take `Fc1ccc(CCc2cc3ccc(CNCCOCCCCl)cc3o2)cc1` [compound 136]: the fold induction at 5 µM was above 2.

`CC(C)(C)OC(=O)COCCNCc1ccc2cc(CCc3ccc(F)cc3)oc2c1` [compound 131] gave a fold induction at 5 µM above 2.

What is called fold induction is the ratio of treated to control signal. A high value points to a strong induction.

Source of the values: patent US20250282742A1, “BENZOFURAN DERIVATIVES FOR TARGETING AUTOPHAGY” (Automera PTE. LTD, priority 2024, published 2025).
